Measurements taken from patent US20230172984A1, “CLEARANCE OF SENESCENT CELLS BY ACTIVATION OF iNKT CELLS” (THE REGENTS OF THE UNIVERSITY OF CALIFORNIA, priority 2020, published 2023).

How the values were obtained:
[1] = pre-clinical and clinical studies, Wolf et al., 2018; cited from earlier work
[2] = system: senescent CD45^− lung cells; test: Bleomycin-induced lung injury model, C12FDG assay on lung cells; assay type: in vivo, mouse
Method: MATERIALS AND METHODS. Mouse husbandry. All procedures involving mice were performed according to the IACUC standards following ethics approval by the animal committee at the University of California, San Francisco. Male C57BL6/J on chow or HFD fed mice. HFD mice were fed a high-fat diet (60% kcal from fat) from 6 weeks until 22 weeks of age. All experiments on HFD mice were performed at 22-24 weeks total age (16-18 weeks on HFD). Age-matched male C57BL6/J mice on standard rodent chow diet were used as controls. For the lung injury model, 10-week-old male C57BL/6J mice were used. The animals were divided into three groups: the control group, the injured group, and the α-GalCer treated group. The animals in the control group received vehicle only (i.p.) on day 10. […] RBCs in cell pellet were lysed by resuspending in 1 mL lysis buffer for 3 min and was neutralized using 10 mL of sterile DMEM medium, centrifuged and the cell pellet resuspended in 1 ml of sterile DMEM containing DNase I. Viability of the cells was analyzed using Vi-Cell XR cell viability analyzer. C12FDG flow cytometry assay. eWAT SVF cells isolated and counted as described above were adjusted to 3×10^6 cells/ml in complete culture media and incubated with 33 μM C12FDG for 1 hr in a 37° C. water bath. […] Samples were analyzed on an Attune acoustic focusing cytometer. […] Data were analyzed with FlowJo (v. 10). […]

[3] = Bleomycin lung injury, hydroxyproline assay (whole lung collagen content); assay type: in vivo, mouse; settings: bleomycin 3 U/kg, α-GalCer or vehicle at day 10; FIG. 4D
Method: MATERIALS AND METHODS. Mouse husbandry. All procedures involving mice were performed according to the IACUC standards following ethics approval by the animal committee at the University of California, San Francisco. Male C57BL6/J on chow or HFD fed mice. HFD mice were fed a high-fat diet (60% kcal from fat) from 6 weeks until 22 weeks of age. All experiments on HFD mice were performed at 22-24 weeks total age (16-18 weeks on HFD). Age-matched male C57BL6/J mice on standard rodent chow diet were used as controls. For the lung injury model, 10-week-old male C57BL/6J mice were used. The animals were divided into three groups: the control group, the injured group, and the α-GalCer treated group. The animals in the control group received vehicle only (i.p.) on day 10. The injured group animals received bleomycin (3 U/kg) via the intratracheal route at the start of the experiment (day 0). The animals in the α-GalCer treated groups received bleomycin (3 U/kg) on day 0, and i.p. injection of α-GalCer (2 μg/mouse) on day 10. The animals in all the groups were sacrificed on day 14, and lungs were harvested for isolation of primary pulmonary Alveolar Type II cells (ATII) on the same day. For the hydroxyproline assay, mice were euthanized 21 days after injury. Bleomycin lung injury. […] Absorbance was measured at 550 nm and the values were computed from the standard curve.

CCCCCCCCCCCCCCCCCCCCCCCCCC(=O)N[C@@H](CO[C@H]1O[C@H](CO)[C@H](O)[C@H](O)[C@H]1O)[C@H](O)[C@H](O)CCCCCCCCCCCCCC [GalCer, alpha-Galactosylceramide]
tolerability / side effects [1]: generally been well-tolerated over a wide range of doses with minimal side effects | number of CD45^− C12FDG^+ lung cells ([2]; bleomycin 3 U/kg day 0, α-GalCer 2 μg/mouse i.p. day 10, lungs harvested day 14, FIG. 4A): decreased the number of such CD45^− C12FDG^+ lung cells to levels on par with those in the lungs of uninjured control mice | epithelial and mesenchymal senescent cells in lung ([2]; bleomycin-injured mice treated with GalCer): both epithelial and mesenchymal senescent cells were affected | lung hydroxyproline content (fibrosis) [3]: significantly reduced lung hydroxyproline content
